In patent US9427433B2, “Methods and compositions for enhancing fertility and/or inhibiting pregnancy failure and restoring glucose tolerance” (Queen's University at Kingston, priority 2011, dated 2016):
Where two headings read alike, the source gives them in different places.

What was measured:
[1] = test system: high fat fed female NZO mice; test: Ovarian histology of macrolide-treated chronically high fat fed NZO mice; assay type: in vivo, mouse; conditions: chronically high fat diet fed NZO mice
Experimental: Statistical differences between groups were measured by two-way analysis of variance (ANOVA) followed by Bonferroni post-hock t-test comparing effect of all tested macrolides on mean follicular structure counts/unit area at 95% confidence. Scale bars=200 μm for B, D, F, G, H, I, J and 50 μm for A, C, E. N=10 (HFD-NZO), 6 per treatment group. A, C and E are higher magnifications of B, D and F respectively. * denoting ovarian cyst(s).
(§1) For the comparative evaluation of other macrolide drugs to tacrolimus, mice starting at 7 weeks of age were maintained on the high fat diet for a total of 13 weeks of study period. Mice were entered into the experiments when determined to be glucose intolerant as described above. Methods of drug administration and other experimental methods were as described above.

[2] = rats, subcutaneous 0.1 mg/kg every other day (q2d); cited from earlier work
[3] = test system: NZO mice fed a high fat diet; test: Fasting serum glucose, fasting serum insulin and glucose tolerance, comparison of macrolides; assay type: in vivo, mouse; conditions: vs vehicle
Experimental: Female mice were administered tacrolimus (0.1 mg/kg or 0.05 mg/kg, n=6/group), vehicle (n=10), pimecrolimus (0.1 mg/kg, n=6) or sirolimus (0.1 mg/kg, n=6) subcutaneously every other day for 3 weeks.
as §1
Glucose Tolerance Test (GTT): was performed according to standard protocol (Ayala et al 2010). Briefly, basal glucose levels were measured for conscious mice individually caged in 1000 cc plastic mouse caging using a one-touch ultra glucose strips and meter (Acqui-check Aviva, Roche, Montreal, Canada) and approximately 30 microliters of blood obtained via tail venipuncture prior to fasting for six hours in cages equipped with hardwood bedding. Fasting blood glucose was recorded at the end of the six hours fasting period. Mice were then tested for oral glucose tolerance (OGTT) or for insulin sensitivity (Si). For OGTT alert mice were then given 20% D-glucose (2 g/kg body weight) sterile syrup administered orally. For Si experiments mice were given 20% D-glucose (2 g/kg body weight) sterile syrup by intraperitoneal administration through a 1 ml D29 gage “½” insulin syringe (Fisher Scientific, Montreal, Canada). Then after, blood glucose was recorded at 15, 30, 45, 60, 90 and 120 minutes respectively. For Si experiments blood glucose was determined only at 15 minutes. Glucose tolerance graphs were generated by blotting mean±standard error of the mean (SEM) of the recorded glucose data per mouse per minute collection time. One way analysis of variance (ANOVA) followed by student t-test was performed to determine alpha values for statistical differences among mean blood glucose values across experimental mice groups.
Fasting immuno-reactive mouse insulin levels were quantitatively determined in citrated platelet-free plasma samples obtained from 6 hours-fasting mice using an Ultrasensitive mouse Insulin Eliza kit (#90080, Crystal chem., IL, USA) according to the manufacturer instructions. Briefly, platelet-free plasma were isolated from freshly obtained citrated whole blood samples of fasting mice and the provided insulin standards were incubated overnight on a shaking platform at 4 C^0 in a 96 wells plate coated with Guinea pig anti-insulin. Afterwards, unbound sample materials were thoroughly washed with the supplied wash buffers and the bound guinea pig anti-insulin/mouse insulin complex immobilized to the microplate wells were incubated with Horseradish peroxidase (HRP)-conjugated anti-insulin antibody for 40 minutes at room temperature with continuous agitation. Excess unbound HRP-conjugated anti-insulin antibodies were then washed excessively with wash buffers and the HRP-mediated color reaction was developed with the addition of 3,3′,5,5′ tetramethylbenzidine (TMB) substrate solution. The amount of insulin (ng/ml) present in the test samples were then measured via interpolation using the standard curve generated by plotting absorbance (at A^0450-A^0635) versus the corresponding concentration of a wide range (0.1-12.8 ng/ml) of mouse insulin standards according to the provider's instructions. Graphic representation of differences in mean±sem of plasma insulin among different groups of mice were blotted using Prism5 (La Jolla, Calif., USA) software and statistically significant differences (at 95% confidence) were calculated for the different test groups of mice using one way ANOVA followed by Bonferroni modified student t-test comparing differences between individual experimental groups.

[4] = test system: pregnant diabetic NOD mice; test: Pulse Wave Doppler of uterine arterial blood flow (resistance index); assay type: in vivo, mouse
Experimental: Uterine artery resistive index (RI) was calculated for each vessel according to the equation: RI=(Peak Systolic Velocity−Peak Diastolic Velocity)/Peak Systolic Velocity to assess maternal hemodynamic characteristics of tacrolimus-treated versus the normoglycemic and the vehicle-treated diabetic NOD mice.
Following the procedure described by Mu and Adamson (Am. J. Physiol. Heart Circ. Physiol. 291: H1421-H1428) for comparing patterns of blood flow hemodynamics in the uterine artery, transcutaneous ultrasound biomicroscopy and Doppler waveform recording were collected and analyzed from tacrolimus treated versus the diabetic and obese mice and their normoglycemic control cohort of mated pregnant mice using a microultrasound biomicroscope (Vivo770, Visual Sonic Inc., Toronto, Ontario, Canada) and a 30-40 MHz Real-Time Micro Visualization scanhead transducer operating at two frames per second (RMV704 or 708, VisualSonics Inc). […] Maternal heart and respiration rates were recorded via a physiological controller unit connected to the mechanical platform. […] Systolic and diastolic flow parameters were assessed in the selected point along the course of the uterine artery at 3-5 min intervals and the resistance index (RI=[PSV−EDV]/PSV) was calculated when EDV>0 to measure the pulsatility of arterial blood velocity waveforms.

[5] = test system: female NZO mice fed a continuous high fat diet; test: Weight loss, comparison of macrolides; assay type: in vivo, mouse; conditions: tacrolimus 0.05 or 0.1 mg/kg, pimecrolimus 0.1 mg/kg, sirolimus 0.1 mg/kg s.c. every other day for three weeks; vs vehicle
Text: as §1

[6] = test system: 60% high fat fed NZO or DIO mice; test: Body weight gain and visceral fat in high fat fed mice; assay type: in vivo, mouse
Experimental: Twenty NZO and DIO/B6 female mice were maintained on a high fat diet consisted of 60% kcal fat, 20% kcal protein and 20% kcal carbohydrate, with a total energy mass of 5.24 kcal/gm (D12492, Research Diets Inc.; […] Tacrolimus (Prograf (5 mg/ml), Astellas) was administered subcutaneously in a dose of 0.1 mg/kg q2d in 0.2 ml saline for three weeks to the obese and glucose intolerant NZO and DIO mice starting at the age of 10 weeks after which animals were mated to males of the same strain and pregnancy was dated from the morning of the positive detection of vaginal (copulation) plug. See FIG. 2. Facial (mandibular) venous blood samples were collected from treated animals at 24 and 48 hours between injections and at pregnancy days 0.5, 2.5, 4.5, 6.5, 8.5, 10.5, 12.5, 14.5, 16.5 and 18.5, respectively, following a standard procedure for facial bleed in mice (Golde et al. Lab Anim (NY) 2005 34:39-43). A lean cohort of control B6 and BALBc mice was fed with a regular 10 kcal % control chow diet containing the same protein content as the high fat diet with a total energy mass of 3.1 kcal/g (D12450Bi, Cedarlane, Ontario).

transplant patients = conditions: cited from earlier work
[7] = humans, single oral dose of 0.5 mg; cited from earlier work
[8] = test system: diabetic and obese mice fed with 60% fat; test: Serum lipid profile; assay type: in vivo, mouse; conditions: 60% fat for 12 weeks; day 4.5 post-coitum
Text: FIGS. 22A to 22H show results of tacrolimus restoring normal lipid profile in all treated diabetic and obese mice fed with 60% fat for 12 weeks. Normal serum levels of Triglycerides (FIG. 22A and FIG. 22B), Total Cholesterol (FIG. 22C and FIG. 22D), High-density Lipoprotein (HDL) Cholesterol (FIG. 22E and FIG. 22F) and lipid Ratio representing the overall lipid profile (FIG. 22G and FIG. 22H) were obtained after the administration of tacrolimus to the diabetic and obese mice despite their continued high fat calorie intake. Blood samples were taken at day 4.5 post-coitum and values on the Y-axis are plotted as power of 10.

[9] = 0.1 mg/kg s.c. every other day for 3 weeks

SMILES: C=CC[C@@H]1/C=C(\C)C[C@H](C)C[C@H](OC)[C@H]2O[C@@](O)(C(=O)C(=O)N3CCCC[C@H]3C(=O)O[C@H](/C(C)=C/[C@@H]3CC[C@@H](O)[C@H](OC)C3)[C@H](C)[C@@H](O)CC1=O)[C@H](C)C[C@@H]2OC [tacrolimus]
- follicular growth pattern in the ovaries [1]: restored follicular growth pattern
- ovarian cyst formation ([1]; p<0.001): inhibited the development of ovarian cysts
- ovarian follicular atresia ([1]; vs untreated HFD-NZO): significantly inhibited ovarian follicular atresia (p<0.01)
- maximal blood concentration [2]: 0.6 nanograms/ml
- fasting basal serum glucose [3, 9]: normalized fasting basal serum glucose concentrations
- fasting basal serum insulin [3, 9]: significantly reduced fasting basal serum insulin concentrations
- insulin secretion in response to a hyperglycemic challenge ([3]; tacrolimus 0.1 or 0.05 mg/kg, pimecrolimus 0.1 mg/kg, sirolimus 0.1 mg/kg s.c. every other day for 3 weeks): significantly improved insulin secretion
- treated pregnant diabetic mice with sustained decidual arteriolar flow velocity and normalized vascular resistance to uterine blood flow ([4]; Doppler waveform, p<0.05 vs vehicle-treated diabetic mice): 88%
- uterine arterial hemodynamics ([4]; throughout pregnancy): improved uterine arterial hemodynamics
- weight loss [5]: significantly induced weight loss
- body weight gain ([6]; after the initial administration, FIG. 19B): prevented body weight gain for seven consecutive weeks
- mass of the visceral fat ([6]; all treated mice): significantly lower
- safety of use during pregnancy (transplant patients): safe drug for use during pregnancy
- maximal blood concentration [7]: 4.6 ng/mL
- lipid profile (triglycerides, total cholesterol, HDL cholesterol, lipid ratio) [8]: restored normal lipid profile
